pIC50: −log10 of the molar value. Where two headings read alike, the source gives them in different places.
How the values were obtained:
[1] = tested on: MDA-MB-436 Ola^R (BRCA reversion) TNBC cell line; experiment: In vitro activity (IC50) in olaparib-resistant MDA-MB-436; assay type: cell-based
Experimental: (§1) Cells with BRCA reversion mutations may be considered HRD+due to genome instability (such as TAI, LST, LOH). BRCA reversion mutation is an established mechanism of resistance to both platinum-based chemotherapeutic drugs and PARP inhibitors. In vivo exploration of WEE1 inhibitors (azenosertib, adavosertib) and PARP inhibitors (niraparib, olaparib) was evaluated.
(§2) MDA-MB-436 PARP inhibitor-resistant lines were generated by long-term in vitro treatment with a PARP inhibitor that is olaparib (Ola^R) or niraparib (Nir^R).

[2] = tested on: parental MDA-MB-436 TNBC cell line; experiment: In vitro activity (IC50) in parental MDA-MB-436; assay type: cell-based
Experimental: as §1, §2

[3] = tested on: SUM149PT TNBC xenograft (BRCA1 splice isoform Δ11q); experiment: SUM149PT TNBC xenograft tumor growth inhibition; assay type: in vivo, mice
Experimental: SUM149PT is a TNBC xenograft model harboring a BRCA1 splice isoform (Δ11q) that produces a truncated, partially functional protein which thereby promotes PARP inhibitor resistance. Azenosertib monotherapy and its combination with olaparib or AZD5305 was evaluated in the SUM149PT model in vivo in mice (FIGS. 10A-10B), and Table 12 summarizes the groups and treatments. Single agent treatment with olaparib at 100 mg/kg QD (FIG. 10A) or with the PARP1 selective inhibitor, AZD5305, at 0.1 or 1 mg/kg QD (FIG. 10B) confirmed SUM149PT resistance to PARP inhibitors.

[4] = tested on: MDA-MB-436 Nir^R (BRCA reversion) TNBC cell line; experiment: In vitro activity (IC50) in niraparib-resistant MDA-MB-436; assay type: cell-based
Experimental: as §1, §2

[5] = tested on: HCC1937 PARP inhibitor-resistant TNBC xenograft; experiment: HCC1937 TNBC xenograft tumor growth inhibition; assay type: in vivo, mice; settings: olaparib 100 mg/kg QD
Experimental: Anti-tumor activity of azenosertib monotherapy or in combination with olaparib was evaluated in the HCC1937 model in vivo in mice (FIG. 9), and Table 11 summarizes the groups and treatments. […] Treatment with monotherapy olaparib at 100 mg/kg QD confirmed HCC1937 resistance to the PARP inhibitor.

[6] = tested on: 22RV1 (prostate cancer cell line) subcutaneous xenografts; experiment: 22RV1 subcutaneous xenograft tumor growth inhibition; assay type: in vivo, CB17 SCID mice
Experimental: The prostate cancer cell line 22RV1 harbors a BRCA2 pathogenic mutation (HRD+). Briefly, 72 tumor-bearing mice were randomized and assigned into nine groups using a randomized block design based on their tumor volumes with eight mice per group. Each mouse was inoculated subcutaneously at the right flank with 22RV1 tumor cells in 0.2 mL mixture of Matrigel (5×10^6 cells/mouse). Treatments were started when the tumor size reached 199.94 mm^3 for tumor efficacy studies (Day 14 post inoculation). [table] Tumor size was measured twice weekly in two dimensions using caliper and expressed in mm3 using the formula: where a and b were long and short diameters of the tumor. The tumor size was used for calculations of T/C %. The T/C(%) was calculated according to the following formula: Two-way ANOVA followed by Bonferroni post-test was performed to compare tumor volumes among vehicle and other groups.

[7] = Body weight loss and clinical observations in TNBC PDX study; settings: azenosertib 60 mg/kg and/or niraparib 35 mg/kg p.o., (5 days on, 2 days off) × 4
Experimental: Animals were treated with 60 mg/kg azenosertib or 35 mg/kg niraparib alone or in combination on an intermittent dosing regimen of once a day for 5 days followed by 2 days off (qd x5, 2 days off) for 4 cycles (28 days).
Relative body weight (RBW) is calculated for each measurement by dividing the body weight by the body weight at the start of treatment. Individual body weight loss percent is given by the formula: […]
where BWx is the BW at any day during the treatment and BW0 is the BW on the day of inclusion.
Mean body weight loss percent is given by the formula: […]
where BWx is the mean BW at any day during the treatment and BW0 is the mean BW on the day of inclusion.
Mean relative body weight (RBW) curves were obtained by plotting the mean RBW against time for each experimental group. Delta relative body weights (relative body weights of treated group compared to relative body weights of control group) were used for statistical analysis.

[8] = Body weight loss and clinical observations in ovarian PDX study; assay type: in vivo
Experimental: Relative Body Weight (RBW), individual body weight and mean body weight loss percent were calculated for each measurement by dividing the body weight by the body weight at the start of treatment as described in Example 3.

[9] = Homo sapiens, MDA-MB-436 Ola^R, read-out: In vitro activity (IC50) Olaparib^R (BRCA reversion)
[10] = Homo sapiens, parental MDA-MB-436, read-out: In vitro activity (IC50) Wild Type
[11] = olaparib 50 mg/kg p.o. qd × 5 3 cycle
[12] = MDA-MB-436 Ola^R, read-out: In vitro activity (IC50) Olaparib^R (BRCA reversion)
[13] = parental MDA-MB-436, read-out: In vitro activity (IC50) Wild Type
[14] = azenosertib 60 mg/kg and/or niraparib 35 mg/kg p.o., (5 days on, 2 days off) × 4
[15] = niraparib 30 mg/kg p.o. qd × 5 3 cycle

Compound: Cn1cc(-c2cnn3c(N)c(Br)c([C@@H]4CCCNC4)nc23)cn1 [MK8776]
- pIC50 ([1]; Homo sapiens, MDA-MB-436, read-out: In vitro activity (IC50) Olaparib^R (BRCA reversion)): 5.22
- pIC50 ([2]; Homo sapiens, MDA-MB-436, read-out: In vitro activity (IC50) Wild Type): < 5.00

Compound: O=C(c1cc(Cc2n[nH]c(=O)c3ccccc23)ccc1F)N1CCN(C(=O)C2CC2)CC1 [Olaparib, olaparib]
- anti-tumor activity of single agent ([3]; olaparib 100 mg/kg QD): resistance
- pIC50 [1, 9]: < 5.00
- pIC50 [2, 10]: 7.02
- pIC50 ([4]; Homo sapiens): < 5.00
- anti-tumor activity of monotherapy [5]: resistance
- % TGI Day 5 [6, 11]: 33.81%
- % TGI Day 8 [6, 11]: 26.80%
- % TGI Day 12 [6, 11]: 18.2%
- % TGI Day 15 [6, 11]: 5.03%
- % TGI Day 19 [6, 11]: 14.79%

Compound: C[C@@H]1COCCN1c1cc(C2([S@](C)(=N)=O)CC2)nc(-c2cc[nH]c3nccc2-3)n1 [AZD6738]
- pIC50 [1, 12]: 5.73
- pIC50 [2, 13]: 5.44
- pIC50 [4]: 5.75

Compound: CN(C)CCCOc1ccc(-c2ccc3ncc4c(c3c2)n(C2CCOCC2)c(=O)n4C)cn1 [AZD0156]
- pIC50 [1, 12]: 5.70
- pIC50 [2, 13]: 5.30
- pIC50 [4]: 5.68

Compound: NC(=O)c1cccc2cn(-c3ccc([C@@H]4CCCNC4)cc3)nc12 [Niraparib, niraparib]
- pIC50 [1, 9]: 5.11
- Max. individual BWL [7]: 6.2%
- Max. mean BWL [7]: 3.4%
- Max. individual BWL [8, 14]: 7.0%
- Max. mean BWL [8, 14]: 1.5%
- tolerability (body weight data and clinical observations) ([8]; azenosertib at 60 mg/kg, niraparib at 35 mg/kg, single agents or in combination): well tolerated
- pIC50 [2, 10]: 6.99
- pIC50 ([4]; Homo sapiens): 5.06
- % TGI Day 5 [6, 15]: 31.64%
- % TGI Day 8 [6, 15]: 18.17%
- % TGI Day 12 [6, 15]: 21.99%
- % TGI Day 15 [6, 15]: 4.28%
- % TGI Day 19 [6, 15]: −1.28%

Compound: CCc1cc2ncc(CN3CCN(c4ccc(C(=O)NC)nc4)CC3)cc2[nH]c1=O [AZD5305, saruparib]
- anti-tumor activity of single agent ([3]; AZD5305 0.1 or 1 mg/kg QD): resistance

Compound: Cc1cc2ncnn2cc1Nc1ncc2c(n1)n(C1CCOCC1)c(=O)n2C [AZD7648]
- pIC50 [1, 12]: < 5.00
- pIC50 [2, 13]: < 5.00
- pIC50 [4]: < 5.00

Source: patent US20260083742A1, “HOMOLOGOUS RECOMBINATION REPAIR DEFICIENCY (HRD) AS A PREDICTIVE BIOMARKER FOR TREATING CANCER WITH WEE1 INHIBITORS” (Zeno Management, Inc., priority 2023, published 2026)
